In test [1] the target is KAT-7 (Homo sapiens (Human), UniProt O95251). Nature of the test: KAT-7 biochemical inhibition assay (SAMDI mass spectrometry). The gist of the method:
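Read-out was SAMDI time-of-flight MS of formic acid-quenched reactions (0.5% final). Compound dilutions (2% DMSO final) were pre-incubated with 6 nM KAT-7 in 50 mM Tris pH 8.0 with 1 mM DTT, then given 1 μM peptide substrate and 2 μM acetyl-CoA for 120 min at 25 °C. IC50 values were derived.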

The target in test [2] is KAT-8 (Homo sapiens (Human), UniProt Q9H7Z6). Nature of the test: KAT-8 biochemical inhibition assay (SAMDI mass spectrometry). The gist of the method: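 Acetylation of 1 μM peptide substrate with 5 μM acetyl-CoA by 12.5 nM enzyme, compound pre-incubated, 2% DMSO, Tris pH 8.0 buffer with DTT, 25 °C for 90 min. Quench with 0.5% formic acid; product read by SAMDI mass spectrometry to give IC50.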

Test [3] has as its target KAT-5 (Homo sapiens (Human), UniProt Q92993). Nature of the test: KAT-5 biochemical inhibition assay (SAMDI mass spectrometry). The gist of the method: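 Acetylation of 1 μM peptide by 9 nM enzyme with 0.5 μM acetyl-CoA (final) was run 90 min at 25° C in Tris pH 8.0 buffer with DTT, after compound preincubation at 2% DMSO. Formic acid stopped the reaction, and product was quantified by SAMDI mass spectrometry to derive IC50.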

The target in test [4] is KAT-6A (Homo sapiens (Human), UniProt Q92794). Kind of test: KAT-6A biochemical inhibition assay (SAMDI mass spectrometry). The method, boiled down: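 IC50 values came from SAMDI time-of-flight mass spectrometry after formic acid quench (0.5% final). Acetylation ran 90 min at 25 °C with 1 μM acetyl coenzyme A and 1 μM peptide substrate, following compound pre-incubation with 12.5 nM KAT-6A in Tris buffer pH 8.0 containing DTT, 2% DMSO final.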

The values that follow come from patent publication US11685732B2, “MYST family histone acetyltransferase inhibitors” (Epizyme, Inc., priority 2017, dated 2023).

Chain of KAT-7 (O95251 other isoform, or with tags, fused parts or gaps): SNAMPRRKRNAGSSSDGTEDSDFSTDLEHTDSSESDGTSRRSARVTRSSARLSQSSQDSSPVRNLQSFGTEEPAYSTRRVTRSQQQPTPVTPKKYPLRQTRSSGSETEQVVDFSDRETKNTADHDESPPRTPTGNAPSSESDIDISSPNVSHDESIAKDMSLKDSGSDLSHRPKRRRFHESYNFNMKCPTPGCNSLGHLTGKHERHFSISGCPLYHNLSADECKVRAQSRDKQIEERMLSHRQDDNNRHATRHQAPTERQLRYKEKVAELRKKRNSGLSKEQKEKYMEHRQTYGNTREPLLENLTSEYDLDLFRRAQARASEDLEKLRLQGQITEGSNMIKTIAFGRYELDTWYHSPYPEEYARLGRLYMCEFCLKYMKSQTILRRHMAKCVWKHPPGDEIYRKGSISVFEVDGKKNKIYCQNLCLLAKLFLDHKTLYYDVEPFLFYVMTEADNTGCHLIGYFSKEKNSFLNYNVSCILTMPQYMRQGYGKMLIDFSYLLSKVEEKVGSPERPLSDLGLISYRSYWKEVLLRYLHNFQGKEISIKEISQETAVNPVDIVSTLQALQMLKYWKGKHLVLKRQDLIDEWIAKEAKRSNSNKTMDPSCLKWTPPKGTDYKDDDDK
Chain of KAT-6A (Q92794 other isoform, or with tags, fused parts or gaps): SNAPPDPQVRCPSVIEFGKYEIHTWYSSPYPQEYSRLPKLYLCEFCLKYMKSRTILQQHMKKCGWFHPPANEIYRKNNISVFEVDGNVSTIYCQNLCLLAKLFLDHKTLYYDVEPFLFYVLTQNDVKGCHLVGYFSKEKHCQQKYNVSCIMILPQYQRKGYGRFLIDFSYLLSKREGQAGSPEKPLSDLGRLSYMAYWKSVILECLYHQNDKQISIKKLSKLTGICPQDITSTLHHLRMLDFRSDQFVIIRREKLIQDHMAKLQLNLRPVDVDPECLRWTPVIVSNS
Chain of KAT-5 (Q92993 other isoform, or with tags, fused parts or gaps): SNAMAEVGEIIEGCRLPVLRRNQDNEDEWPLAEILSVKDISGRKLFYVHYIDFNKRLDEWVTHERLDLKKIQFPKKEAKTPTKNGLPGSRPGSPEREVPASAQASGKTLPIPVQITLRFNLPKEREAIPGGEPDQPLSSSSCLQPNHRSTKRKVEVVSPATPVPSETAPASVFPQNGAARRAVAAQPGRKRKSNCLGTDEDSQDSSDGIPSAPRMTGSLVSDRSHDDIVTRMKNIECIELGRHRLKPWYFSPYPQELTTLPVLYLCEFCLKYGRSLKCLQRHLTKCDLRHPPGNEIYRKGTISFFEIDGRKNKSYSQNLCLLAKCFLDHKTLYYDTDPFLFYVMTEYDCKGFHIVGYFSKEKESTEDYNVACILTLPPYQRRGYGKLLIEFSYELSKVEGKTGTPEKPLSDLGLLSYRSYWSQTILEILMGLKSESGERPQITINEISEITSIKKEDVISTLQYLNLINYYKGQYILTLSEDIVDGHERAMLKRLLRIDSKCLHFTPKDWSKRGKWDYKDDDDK
Chain of KAT-8 (Q9H7Z6 other isoform, or with tags, fused parts or gaps): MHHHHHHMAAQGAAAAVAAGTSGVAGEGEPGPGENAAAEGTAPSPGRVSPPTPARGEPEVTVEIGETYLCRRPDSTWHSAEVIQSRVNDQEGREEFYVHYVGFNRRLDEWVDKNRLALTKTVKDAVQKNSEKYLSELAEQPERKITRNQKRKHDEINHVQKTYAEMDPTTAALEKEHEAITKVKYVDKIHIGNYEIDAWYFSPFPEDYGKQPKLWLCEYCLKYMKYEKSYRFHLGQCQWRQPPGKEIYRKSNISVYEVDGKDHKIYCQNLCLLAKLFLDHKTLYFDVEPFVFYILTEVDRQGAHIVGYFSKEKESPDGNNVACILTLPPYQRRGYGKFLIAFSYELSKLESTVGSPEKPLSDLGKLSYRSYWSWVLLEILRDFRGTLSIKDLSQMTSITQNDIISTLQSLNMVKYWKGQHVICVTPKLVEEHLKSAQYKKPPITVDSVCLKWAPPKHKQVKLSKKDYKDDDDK

By IC50 is commonly meant the concentration needed to halve the response being measured. A higher IC50 goes with weaker potency in that assay. With `CN(C(=O)C1CCC1)C1CCC(CS(=O)(=O)NNC(=O)c2cc(-c3cn(C)cn3)cc(Cl)c2F)CC1` (stereo not drawn) [Compound I-317], the IC50 was < 10 µM in test [1], 10 to 50 µM in test [2], < 10 µM in test [3] and < 10 µM in test [4].

Turning to `CN1CCN([C@H]2CC[C@H](CS(=O)(=O)NNC(=O)c3cc(-c4cn(C)cn4)cc(Cl)c3F)CC2)C1=O` [Compound I-319], the 50% inhibitory concentration (IC50) is < 10 µM in test [1], 10 to 50 µM in test [2], < 10 µM in test [3] and < 10 µM in test [4].

In the case of `Cn1cnc(-c2cc(Cl)c(F)c(C(=O)NNS(=O)(=O)c3cccc(F)c3)c2)c1` [Compound I-320], the half-maximal inhibitory concentration (IC50) in test [1] was < 10 µM; in test [2], 10 to 50 µM; in test [3], < 10 µM; in test [4] it was < 10 µM.

Take `COc1ccccc1S(=O)(=O)NNC(=O)c1cc(-c2cn(C)cn2)cc(Cl)c1F` [Compound I-321]: the IC50 is < 10 µM in test [1], 10 to 50 µM in test [2], < 10 µM in test [3] and < 10 µM in test [4].

As for `COc1cccc(S(=O)(=O)NNC(=O)c2cc(-c3cn(C)cn3)cc(Cl)c2F)c1` [Compound I-322], the IC50 in test [1] is < 10 µM; in test [2], 10 to 50 µM; in test [3] it was < 10 µM; in test [4], < 10 µM.

Regarding `Cn1cnc(-c2cc(Cl)c(F)c(C(=O)NNS(=O)(=O)c3ccc(Cl)cc3)c2)c1` [Compound I-323], the 50% inhibitory concentration (IC50) in test [1] was < 10 µM; in test [2] it was 10 to 50 µM; in test [3], < 10 µM; in test [4] it was < 10 µM.

In the case of `Cn1cnc(-c2cc(Cl)c(F)c(C(=O)NNS(=O)(=O)c3cccc(Cl)c3)c2)c1` [Compound I-324], the IC50 is < 10 µM in test [1], 10 to 50 µM in test [2], < 10 µM in test [3] and < 10 µM in test [4].

Take `CN1CCN([C@H]2C[C@@H](CS(=O)(=O)NNC(=O)c3cc(-c4cn(C)cn4)cc(Cl)c3F)C2)C1=O` [Compound I-325]: the IC50 was < 10 µM in test [1], 10 to 50 µM in test [2], < 10 µM in test [3] and < 10 µM in test [4].

As to `CCC(=O)N(C)C1CCC(CS(=O)(=O)NNC(=O)c2cc(-c3cn(C)cn3)cc(Cl)c2F)CC1` (stereo not drawn) [Compound I-326], the IC50 in test [1] is < 10 µM; in test [2] it was 10 to 50 µM; in test [3], < 10 µM; in test [4], < 10 µM.

As to `COc1ccc(CNC(=O)NC2CCC(CS(=O)(=O)NNC(=O)c3cc(-c4cn(C)cn4)cc(Cl)c3F)C2)cc1` (stereo not drawn) [Compound I-327], the IC50 in test [1] is < 10 µM; in test [2] it was 10 to 50 µM; in test [3], < 10 µM; in test [4], < 10 µM.

For the compound `Cn1cnc(-c2cc(Cl)c(F)c(C(=O)NNS(=O)(=O)CC(=O)N3CCCC3)c2)c1` [Compound I-328], the IC50 in test [1] is < 10 µM; in test [2] it was 10 to 50 µM; in test [3] it was 10 to 50 µM; in test [4], 10 to 50 µM.

With `CO[C@H]1CC[C@H](CS(=O)(=O)NNC(=O)c2cc(-c3cn(C)cn3)cc(Cl)c2F)CC1` [Compound I-329], the half-maximal inhibitory concentration (IC50) is < 10 µM in test [1], 10 to 50 µM in test [2], < 10 µM in test [3] and < 10 µM in test [4].

With `Cn1cnc(-c2cc(Cl)c(F)c(C(=O)NNS(=O)(=O)c3ccccn3)c2)c1` [Compound I-330], the IC50 in test [1] is < 10 µM; in test [2] it was 10 to 50 µM; in test [3], < 10 µM; in test [4], < 10 µM.

On to `Cn1cnc(-c2cc(Cl)c(F)c(C(=O)NNS(=O)(=O)C[C@H]3CC[C@@H](N(C)C(=O)OC(C)(C)C)CC3)c2)c1` [Compound I-331], for which the IC50 was < 10 µM in test [1], 10 to 50 µM in test [2], < 10 µM in test [3] and 10 to 50 µM in test [4].

In the case of `Cn1cnc(-c2cc(Cl)c(F)c(C(=O)NNS(=O)(=O)C[C@H]3CC[C@H](N(C)C(=O)OC(C)(C)C)CC3)c2)c1` [Compound I-332], the half-maximal inhibitory concentration (IC50) in test [1] was < 10 µM; in test [2] it was 10 to 50 µM; in test [3], < 10 µM; in test [4], < 10 µM.

For the compound `Cn1cnc(-c2cc(Cl)c(F)c(C(=O)NNS(=O)(=O)C[C@@H]3CCC[C@@H](NC(=O)OC(C)(C)C)C3)c2)c1` [Compound I-333], the IC50 in test [1] is < 10 µM; in test [2], 10 to 50 µM; in test [3], < 10 µM; in test [4] it was < 10 µM.

In the case of `Cn1cnc(-c2cc(Cl)c(F)c(C(=O)NNS(=O)(=O)CC34CCC(CC3)CC4)c2)c1` [Compound I-334], the 50% inhibitory concentration (IC50) in test [1] is < 10 µM; in test [2] it was 10 to 50 µM; in test [3] it was < 10 µM; in test [4], < 10 µM.

In the case of `CC1CCCCC1CS(=O)(=O)NNC(=O)c1cc(-c2cn(C)cn2)cc(Cl)c1F` (stereo not drawn) [Compound I-335], the half-maximal inhibitory concentration (IC50) was < 10 µM in test [1], 10 to 50 µM in test [2], < 10 µM in test [3] and < 10 µM in test [4].

`CN(C)C(=O)NC1CCC(CS(=O)(=O)NNC(=O)c2cc(-c3cn(C)cn3)cc(Cl)c2F)C1` (stereo not drawn) [Compound I-336]: the IC50 is < 10 µM in test [1], 10 to 50 µM in test [2], < 10 µM in test [3] and < 10 µM in test [4].

Regarding `CN[C@H]1CC[C@H](CS(=O)(=O)NNC(=O)c2cc(-c3cn(C)cn3)cc(Cl)c2F)CC1` [Compound I-337], the IC50 in test [1] is < 10 µM; in test [2] it was 10 to 50 µM; in test [3], 10 to 50 µM; in test [4], 10 to 50 µM.

In the case of `CCNC(=O)N(C)[C@H]1CC[C@H](CS(=O)(=O)NNC(=O)c2cc(-c3cn(C)cn3)cc(Cl)c2F)CC1` [Compound I-338], the concentration for half-maximal inhibition (IC50) in test [1] was < 10 µM; in test [2] it was 10 to 50 µM; in test [3] it was < 10 µM; in test [4], < 10 µM.

As to `Cn1cnc(-c2cc(Cl)c(F)c(C(=O)NNS(=O)(=O)CC3CCC(N)C3)c2)c1` (stereo not drawn) [Compound I-339], the half-inhibitory concentration (IC50) in test [1] was < 10 µM; in test [2], 10 to 50 µM; in test [3] it was 10 to 50 µM; in test [4], 10 to 50 µM.

In the case of `Cn1cnc(-c2cc(Cl)c(F)c(C(=O)NNS(=O)(=O)CC3CCC(NC(N)=O)C3)c2)c1` (stereo not drawn) [Compound I-340], the 50% inhibitory concentration (IC50) is < 10 µM in test [1], 10 to 50 µM in test [2], < 10 µM in test [3] and < 10 µM in test [4].

Regarding `Cn1cnc(-c2cc(Cl)c(F)c(C(=O)NNS(=O)(=O)CC3CCC(NC(=O)N4CCC4)C3)c2)c1` (stereo not drawn) [Compound I-341], the IC50 is < 10 µM in test [1], 10 to 50 µM in test [2], < 10 µM in test [3] and < 10 µM in test [4].

For `Cn1cnc(-c2cc(Cl)c(F)c(C(=O)NNS(=O)(=O)CC3CCCC(F)(F)C3)c2)c1` (stereo not drawn) [Compound I-342], the concentration for half-maximal inhibition (IC50) in test [1] is < 10 µM; in test [2], 10 to 50 µM; in test [3] it was < 10 µM; in test [4] it was < 10 µM.

For `CN(C(=O)OC(C)(C)C)c1cccc(S(=O)(=O)NNC(=O)c2cc(-c3cn(C)cn3)cc(Cl)c2F)c1` [Compound I-343], the IC50 in test [1] is < 10 µM; in test [2], 10 to 50 µM; in test [3], < 10 µM; in test [4] it was < 10 µM.

Take `Cn1cnc(-c2cc(Cl)c(F)c(C(=O)NNS(=O)(=O)CC3CCC(NC(=O)N4CCCCC4)C3)c2)c1` (stereo not drawn) [Compound I-345]: the concentration for half-maximal inhibition (IC50) in test [1] was < 10 µM; in test [2], 10 to 50 µM; in test [3], < 10 µM; in test [4], < 10 µM.

With `Cn1cnc(-c2cc(Cl)c(F)c(C(=O)NNS(=O)(=O)CC3CCC(NC(=O)N4CCCC4)C3)c2)c1` (stereo not drawn) [Compound I-346], the half-inhibitory concentration (IC50) in test [1] is < 10 µM; in test [2], 10 to 50 µM; in test [3] it was < 10 µM; in test [4], < 10 µM.

As for `CCOC1CCC(CS(=O)(=O)NNC(=O)c2cc(-c3cn(C)cn3)cc(Cl)c2F)CC1` (stereo not drawn) [Compound I-347], the IC50 in test [1] was < 10 µM; in test [2], 10 to 50 µM; in test [3], < 10 µM; in test [4], < 10 µM.

As to `CCNC(=O)N[C@H]1CCC[C@H](CS(=O)(=O)NNC(=O)c2cc(-c3cn(C)cn3)cc(Cl)c2F)C1` [Compound I-348], the IC50 in test [1] is < 10 µM; in test [2], 10 to 50 µM; in test [3], < 10 µM; in test [4], < 10 µM.

With `Cn1cnc(-c2cc(Cl)c(F)c(C(=O)NNS(=O)(=O)C[C@H]3CCC[C@H](N)C3)c2)c1` [Compound I-349], the IC50 in test [1] is < 10 µM; in test [2] it was 10 to 50 µM; in test [3], 10 to 50 µM; in test [4], 10 to 50 µM.

Take `Cn1cnc(-c2cc(Cl)c(F)c(C(=O)NNS(=O)(=O)C[C@H]3CCC[C@H](NC(=O)OC(C)(C)C)C3)c2)c1` [Compound I-350]: the concentration for half-maximal inhibition (IC50) is < 10 µM in test [1], 10 to 50 µM in test [2], < 10 µM in test [3] and < 10 µM in test [4].

Regarding `Cn1cnc(-c2cc(Cl)c(F)c(C(=O)NNS(=O)(=O)C[C@@H]3CCC[C@@H](N)C3)c2)c1` [Compound I-351], the 50% inhibitory concentration (IC50) in test [1], in test [2], in test [3] and in test [4] was 10 to 50 µM each time.
